Data set [1] relates to P. inhibens. The data set is described as follows: Antibacterial activity (growth inhibition, OD600). The format is cell-based, Phaeobacter inhibens DSM 17395. The following applies: 0.16 µg/mL, 48 h, positive control. How it is done:
(§1) To assess antimicrofouling activity, we selected five marine bacterial species as models: Marinobacter hydrocarbonoclasticus DSM 8798 (ATCC 49840), C. marina DSM 4741, Phaeobacter inhibens DSM 17,395, Pseusooceanicola batsensis DSM 15,984, and Micrococcus luteus DSM 20030 (ATCC 4698) ([Michael et al., 2016]). These strains, sourced from DSMZ (Leibniz Institute DSMZ—German Collection of Microorganisms and Cell Cultures), were cultured in liquid marine broth (Carl Roth GmbH, Karlsruhe, Germany) with agitation at 180 rpm or on agar-supplemented marine broth. Incubation temperatures were set at 28°C for M. hydrocarbonoclasticus and Cobetia marina, 30°C for P. inhibens and P. batsensis, while M. luteus was maintained at 37°C in Brain Heart Infusion broth (BHI, Becton Dickinson, GmbH, Heidelberg, Germany) under similar agitation conditions.
(§2) The antibacterial efficacy of compounds (1) and (2) was assessed in 96-well polystyrene flat-bottom microplates (Nunclon Delta Surface, Thermo Scientific, Roskilde, Denmark) following established procedures ([Bauermeister et al., 2019]). In the initial screening, bacterial overnight cultures were diluted to an optical density (OD600nm) of 0.2 and incubated statically at appropriate temperatures. The cultures were treated with the following final concentrations per well: 31.25, 15.60, 7.81, 3.91, 1.95, and 0.98 μg/mL (2-fold serial dilutions) of the compounds, solubilized in DMSO, or left untreated. After 24 h (M. hydrocarbonoclasticus, C. marina) or 48 h (P. batsensis, P. inhibens, M. luteus) incubation, optical density at 600 nm (OD600) was measured using a Molecular Devices Spectra Max 190. Growth inhibition percentages were calculated relatively to untreated bacterial species, using DMSO as a negative control. CuSO4 (0.16 μg/mL), a recognized antifouling agent, was used as positive control. All assays were conducted in triplicate, and the results represent the mean and standard error of the mean (SEM). Statistical analysis was carried out using GraphPad Prism 8.0.2 (San Diego, CA, United States), employing one-way ANOVA followed by Dunnett’s multiple comparisons test against the negative control.

Data set [2] has as its system C. marina. The data set is described as follows: Antibacterial activity (growth inhibition, OD600). The format is cell-based, Cobetia marina DSM 4741. As to conditions: 0.16 µg/mL, 24 h, positive control. The procedure: as §1, §2
In data set [3] the test system is P. inhibens. The data set is described as follows: Antibiofilm activity (inhibition of biofilm formation). The format is cell-based, Phaeobacter inhibens DSM 17395. As to conditions: 0.16 µg/mL, 48 h, positive control. The procedure: as §1
(§3) The antibiofilm potential of compounds (1) and (2) against the five marine bacterial species was investigated in 96-well polystyrene flat-bottom microplates (Nunclon Delta Surface, Thermo Scientific, Roskilde, Denmark), as described previously ([Bauermeister et al., 2019]; [Pereira et al., 2020]). In the initial screening, bacterial overnight cultures were diluted to an OD600 of 0.2 and incubated statically at appropriate temperatures. The cultures were tested at 31.25, 15.60, 7.81, 3.91, 1.95, 0.98 μg/mL concentrations (2-fold serial dilutions) of compounds (1) and (2), solubilized in DMSO, or left untreated. After 24 h (M. hydrocarbonoclasticus, C. marina) or 48 h (P. batsensis, P. inhibens, M. luteus) incubation, OD600 was measured. The planktonic cells and media were discarded, and the wells were washed twice with deionized water. Biofilms were fixed, stained, and quantified by measuring the OD600 after solubilization with acetic acid. Biofilm inhibition percentages were calculated relative to untreated bacterial species, using DMSO as a negative control and CuSO4 (0.16 μg/mL), as a positive control. All assays were performed in triplicate, and the results represent the mean and standard error of the mean (SEM). Statistical analysis was conducted using GraphPad Prism 8.0.2, employing one-way ANOVA followed by Dunnett’s multiple comparisons test against the negative control.

Data set [4] concerns M. luteus. The data set is described as follows: Antibacterial activity (growth inhibition, OD600). The format is cell-based, Micrococcus luteus DSM 20030. The following applies: 0.16 µg/mL, 48 h, positive control. How it is done:
as §1, §2

In data set [5] the test system is P. batsensis. The data set can be described thus: Antibacterial activity (growth inhibition, OD600). The format is cell-based, Pseudo-oceanicola batsensis DSM 15984. As to conditions: 0.16 µg/mL, 48 h, positive control. The procedure:
as §1, §2

Data set [6] relates to M. luteus. The data set is described as follows: Antibiofilm activity (inhibition of biofilm formation). The following applies: 0.16 µg/mL, 48 h, positive control. The format is cell-based, Micrococcus luteus DSM 20030. How it is done: as §1, §3
Data set [7] concerns M. hydrocarbonoclasticus. The data set is described as follows: Antibacterial activity (growth inhibition, OD600). The format is cell-based, Marinobacter hydrocarbonoclasticus DSM 8798. The following applies: 0.16 µg/mL, 24 h, positive control. How it is done:
as §1, §2

The subject of data set [8] is P. batsensis. The data set can be described thus: Antibiofilm activity (inhibition of biofilm formation). The format is cell-based, Pseudo-oceanicola batsensis DSM 15984. As to conditions: 0.16 µg/mL, 48 h, positive control. How it is done:
as §1, §3

For data set [9], the system named is C. marina. The data set is described as above. The following applies: 0.16 µg/mL, 24 h, positive control. The format is cell-based, Cobetia marina DSM 4741. The procedure: as §1, §3
In data set [10] the test system is M. hydrocarbonoclasticus. The description is as above. As to conditions: 0.16 µg/mL, 24 h, positive control. The format is cell-based, Marinobacter hydrocarbonoclasticus DSM 8798. How it is done: as §1, §3
A further data set deals with Aliivibrio fischeri. The data set can be described thus: Inhibition of bioluminescence (ISO 11348-3 micro adaptation). The format is cell-based. As to conditions: 100 µg/mL. The procedure: The in vivo evaluation of compounds (1) and (2) for acute toxicity was performed towards marine bacterium Aliivibrio fischeri, and planktonic crustacean Daphnia magna. The chronic ecotoxicity tests were evaluated using algae Pseudokirchneriella subcapitata and Phaeodactylum tricornutum.
The inhibition of bioluminescence of the marine bacterium A. fischeri, were studied following a micro adaptation of the standard procedure ISO 11348-3 (“Water Quality-Determination of the inhibitory effect of water samples on the light emission of Vibrio fischeri - Luminescent bacteria test–using freeze-dried bacteria method”). Briefly, frozen lyophilized bacterial cells (Abraxis, Warminster, PA, United States) were reconstituted in Reconstitution Solution, supplied by the manufacturer of the Abratox kit (Abraxis). Madeirone (1) and neomarinone (2) were dissolved in DMSO and tested at the concentrations of 100, 50, 25, 12.5, 6.25, 3.13, and 1.56 μg/mL. The emitted luminescence was measured using a luminometer at time 0 min and at different exposure times (5, 15 and 30 min) and the percentage of inhibition of bioluminescence was determined. Each experiment was performed in duplicate and the results of three independent experiments with <10% SD are presented. Phenol was used as a positive control.

Data set [11] has as its system Alga Scenedesmus quadricauda. As to conditions: cited from earlier work.
In data set [12] the test system is Daphnia magna. As to conditions: ref Tišler and Zagorc-končan, 2003; cited from earlier work.
Another data set deals with Fish Orcorhynchus mykiss. As to conditions: ref Tišler and Zagorc-končan, 2003; cited from earlier work.
The test system of a further data set is Oral rat/rabit. Details: method as in Tišler and Zagorc-končan, 2003. As to conditions: ref Tišler and Zagorc-končan, 2003; cited from earlier work.
In data set [13] the test system is Daphnia magna. As to conditions: cited from earlier work.
In another data set the test system is Oral rat. The following applies: from reported data; ref Tišler and Zagorc-končan, 2003; cited from earlier work.
The test system of another data set is M. edulis. Details: method as in Davies et al., 1997. The following applies: against M. edulis; ref Davies et al., 1997; cited from earlier work.

Like-named read-outs stand apart in the source and are kept apart here.

In the case of `O=S(=O)([O-])[O-].[Cu+2]` [CuSO4, reference compound], the “Growth inhibition (%) P. inhibens” value in the data set on P. inhibens [1] is 66.2 ± 5.6 %. Moreover, the “Growth inhibition (%) C. marina” value in the data set on C. marina [2] was “No inhibition and N.I”. In the data set on P. inhibens [3], the “Biofilm inhibition (%) P. inhibens” value came out at 12.9 ± 6.4%. Besides, in the data set on M. luteus [4], the “Growth inhibition (%) M. luteus” value was “No inhibition and N.I”. Also, the “Growth inhibition (%) P. batsensis” value in the data set with P. batsensis [5] is on record as 44.8 ± 6.3 %. The “Biofilm inhibition (%) M. luteus” value in the data set on M. luteus [6] is “no observable inhibition and N.I”. The “Growth inhibition (%) M. hydrocarbonoclasticus” value with M. hydrocarbonoclasticus [7] is 35.8 ± 0.8 %. In the data set with P. batsensis [8], the “Biofilm inhibition (%) P. batsensis” value was determined as 41.4 ± 0.9%. The “Biofilm inhibition (%) C. marina” value with C. marina [9] is “no observable inhibition and N.I”. The “Biofilm inhibition (%) M. hydrocarbonoclasticus” value in the data set with M. hydrocarbonoclasticus [10] is “no observable inhibition and N.I”.

As for `Oc1ccccc1` [Phenol, reference compound], the “Inhibition (%) A. fischeri (bioluminescence)” value in the data set on Aliivibrio fischeri is recorded as 19.8%.

Regarding `[Cu]` [compound 8, copper], the “Alga Scenedesmus quadricauda 21 days NOEC” value in data set [11] is 0.18 mg/L. Also, the “Daphnia magna 48 h LC50” value in the data set with Daphnia magna [12] is 0.030 µg/mL. In addition, the “Fish Orcorhynchus mykiss 96 h LC50” value in the data set with Fish Orcorhynchus mykiss is 0.48 µg/mL. Besides, the “Oral rat/rabit LD50” value with Oral rat/rabit is 140 mg/kg. The “Daphnia magna 21 days NOEC” value with Daphnia magna [13] (in vivo) is recorded as 0.015 mg/L. Also, the ATE category with Oral rat is reported as 3 (category 3, 50 < ATE ≤300 mg/kg, labeled as (“Toxic if swallowed”)).

`[As]` [compound 9, arsenic]: the “Alga Scenedesmus quadricauda 21 days NOEC” value in data set [11] (footnote d as printed, ref Tišler and Zagorc-končan, 2003) was 34.5 mg/L. In addition, in the data set on Daphnia magna [12], the “Daphnia magna 48 h LC50” value was 2.5 µg/mL. Moreover, in the data set on Fish Orcorhynchus mykiss, the “Fish Orcorhynchus mykiss 96 h LC50” value is 15.3 µg/mL. Also, the “Oral rat/rabit LD50” value in the data set with Oral rat/rabit is on record as 12 mg/kg. Besides, the “Daphnia magna 21 days NOEC” value with Daphnia magna [13] (ref Tišler and Zagorc-končan, 2003) is listed as 1.85 mg/L. The ATE category with Oral rat is listed as 2 (category 2, 5 < ATE ≤50 mg/kg, also classified as “Fatal if swallowed”).

For orientation: EC50 means the concentration giving half of the maximal effect. Take ivermectin: the EC50 with M. edulis is 0.4 µg/mL.
